These are literature values, as cited in paper PMC3828007 (CPT: Pharmacometrics & Systems Pharmacology, 2013).

One series relates to NET (plasma DHPG). To be noted: read-out: in vivo EC50 for inhibitory effect on plasma DHPG.

For `CNCC[C@H](Oc1cccc2ccccc12)c1cccs1` [duloxetine], in the series with NET (plasma DHPG), the 50% effective concentration (EC50) – broadly, the concentration that produces a half-maximal response – was […]. As for `COc1ccc(C(CN(C)C)C2(O)CCCCC2)cc1` (centres unmarked) [venlafaxine], in the series with CYP, the CYP inhibition liability result is listed as “moderate”.
